Values quoted from earlier work in patent publication US10335381B2, “Stabilized formulation of triamcinolone acetonide” (University of Mississippi, priority 2006, dated 2019).

Settings: Gupta 1983

CC1(C)O[C@@H]2C[C@H]3[C@@H]4CCC5=CC(=O)C=C[C@]5(C)[C@@]4(F)[C@@H](O)C[C@]3(C)[C@]2(C(=O)CO)O1 [TAA, triamcinolone acetonide]
optimum pH for TAA stability in aqueous solution: about 3.4
